The source made the active and inactive calls.
Key:
Assay type in all cases: functional, cell-based
SGC-7901 = test: Cytotoxicity against human SGC7901 cells at 20 uM by MTT assay
QGY7701 = test: Cytotoxicity against human QGY7701 cells at 20 uM by MTT assay
MCF7 = test: Cytotoxicity against human MCF7 cells at 20 uM by MTT assay
A549 = test: Cytotoxicity against human A549 cells at 20 uM by MTT assay

Measured: Activity

CC1=C[C@@H]2C[C@H](C)C[C@H](C)[C@H]2[C@](C)(C(=O)CCO)[C@@H]1C(=O)O
inactive: all assays above

CC1=C(CO)[C@@]2(C)CCC[C@@](C)(CO)[C@@H]2CC1=O
inactive: all assays above

CC1(C)[C@@H](O)CC[C@]2(C)C3=C(CC[C@@H]12)C(=O)OC3
inactive: all assays above

CC1(C)C(=O)CC[C@]2(C)[C@@H](CO)[C@](C)(O)CC[C@@]12O
inactive: all assays above

CC(C)(O)[C@]12CCC3=C(COC3=O)[C@@]1(C)CCC(=O)O2
inactive: all assays above

CC1=C(CO)[C@@]2(C)CC[C@H](O)C(C)(C)[C@@H]2CC1=O
inactive: all assays above

CC1(C)CC(=O)C[C@]2(C)[C@@H](CO)[C@](C)(O)CC[C@@H]12
inactive: all assays above

CC1=C(CO)[C@@]2(C)C[C@@H](O)CC(C)(C)[C@@H]2CC1=O
inactive: all assays above

CC1(C)CCC[C@]2(C)[C@@H](C(=O)O)[C@](C)(O)CC[C@@H]12
inactive: all assays above

C[C@]1(CO)CCC[C@]2(C)[C@@H](CO)[C@](C)(O)CC[C@@H]12
inactive: all assays above

CC1=C(CO)[C@@]2(C)CCCC(C)(C)[C@@H]2C[C@H]1O
inactive: all assays above
